Test systems include K562; SK-MEL-28; UACC-62; SF-295; TK-10; NCI-H23; HOP-92; NCI-H522; HL-60; SK-OV-3; PC-3; Malme-3M; RPMI-8226; OVCAR-8; NCI-H460; HOP-62; SF-268.
Holding throughout (test): DTP human tumour cell line panel, 48 h

The record followed here is ChEMBL document CHEMBL1201862, “PubChem BioAssay data set” (2004).

Usually GI50 stands for the concentration that inhibits growth by half.

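The compound was tested at five concentrations on cells cultured in 96-well plates, with a 48-hour exposure period. At the GI50, growth is halved.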 The source made the active and inactive calls. No stated cut-off is given here; in the data, active = GI50 up to about 1.1 µM and inactive = higher. Where only a bound is given, the exact number is not on record here.

With `NS(=O)(=O)c1ccc(/N=N/c2ncccc2O)cc1`, the GI50 in the assay with K562 is 40.2 µM (inactive); in the assay with SK-MEL-28, > 100 µM (inactive); with UACC-62, > 100 µM (inactive); in the assay on SF-295 it was > 100 µM (inactive); with TK-10, > 100 µM (inactive); in the assay on NCI-H23 it was 51.4 µM (inactive). Also, the GI50 in the assay on HOP-92 is > 100 µM (inactive); in the assay with NCI-H522, 44.9 µM (inactive); with HL-60 it was 41.1 µM (inactive); in the assay with SK-OV-3, > 100 µM (inactive); with PC-3, > 100 µM (inactive); in the assay with Malme-3M it was > 100 µM (inactive). The GI50 in the assay with RPMI-8226 was > 100 µM (inactive); in the assay on OVCAR-8 it was 79.6 µM (inactive); in the assay with NCI-H460, 69.3 µM (inactive); in the assay with HOP-62, > 100 µM (inactive); with SF-268, > 100 µM (inactive).
With `Cc1nc(O)c(Cc2ccccc2O)c(-c2ccccc2)n1`, the GI50 in the assay with K562, in the assay with SK-MEL-28, in the assay with UACC-62, in the assay with SF-295, in the assay on TK-10 and with NCI-H23 was > 100 µM (inactive) in each case. Besides, the GI50 with HOP-92, in the assay on NCI-H522, in the assay with HL-60, in the assay with SK-OV-3, in the assay on PC-3 and with Malme-3M was > 100 µM (inactive) in each case. Further, the GI50 with RPMI-8226, in the assay on OVCAR-8, in the assay with NCI-H460, in the assay on HOP-62 and in the assay with SF-268 was > 100 µM (inactive) in each case.
On to `CC1(C)CCC[C@@]2(C)C1C(=O)[C@@H]1O[C@]1(C)[C@@H]2CO` (stereo partly drawn), for which the GI50 with K562 is 27.3 µM (inactive); in the assay with SK-MEL-28 it was 13.7 µM (inactive); with UACC-62, 37.2 µM (inactive); in the assay with SF-295, 18.2 µM (inactive); with TK-10, 80 µM (inactive); in the assay on NCI-H23 it was 16.3 µM (inactive). For the same molecule, the GI50 with HOP-92 was 27.8 µM (inactive); in the assay with NCI-H522, 22.6 µM (inactive); in the assay on HL-60 it was 17.4 µM (inactive); in the assay on SK-OV-3, 39.6 µM (inactive); with PC-3, 35.4 µM (inactive); in the assay with Malme-3M it was 37.9 µM (inactive). Moreover, the GI50 with RPMI-8226 was 15.2 µM (inactive); with OVCAR-8, 27.3 µM (inactive); in the assay on NCI-H460, 13.5 µM (inactive); in the assay on HOP-62, 40.2 µM (inactive); in the assay with SF-268, 26.2 µM (inactive).
`NC(=O)c1ccc(NCC2=CC(=O)C=CC2=O)cc1`: the GI50 in the assay with K562 was 21.8 µM (inactive); in the assay on SK-MEL-28, 20.5 µM (inactive); with UACC-62, 20.4 µM (inactive); with SF-295, > 100 µM (inactive); in the assay with TK-10, 17.7 µM (inactive); with NCI-H23, 25.9 µM (inactive). The GI50 in the assay on HOP-92 was 16.5 µM (inactive); with NCI-H522 it was 16.3 µM (inactive); in the assay with HL-60, 11.5 µM (inactive); in the assay on SK-OV-3, > 100 µM (inactive); in the assay on PC-3, 18.6 µM (inactive); in the assay with Malme-3M it was 19.5 µM (inactive). Moreover, the GI50 was 18.7 µM (inactive) in the assay on RPMI-8226; 20.4 µM (inactive) in the assay on OVCAR-8; > 100 µM (inactive) with NCI-H460; > 100 µM (inactive) in the assay with HOP-62; 22.9 µM (inactive) in the assay with SF-268.
With `COc1ccc2c(c1)SC1=Nc3sc4cc(OC)ccc4[n+]3CN12`, the GI50 with K562 was 4.16 µM (inactive); with UACC-62 it was 11.7 µM (inactive); in the assay on SF-295 it was 31.3 µM (inactive); in the assay with TK-10, 51.4 µM (inactive); in the assay on NCI-H23, 15.7 µM (inactive); with HOP-92, 2.23 µM (inactive). For the same molecule, the GI50 with NCI-H522 was 1.38 µM (inactive); with HL-60 it was 9.29 µM (inactive); in the assay with SK-OV-3 it was 70.5 µM (inactive); in the assay on PC-3 it was 36.5 µM (inactive); in the assay with Malme-3M, 14.6 µM (inactive); with RPMI-8226 it was 20.7 µM (inactive). Besides, the GI50 is 29.4 µM (inactive) in the assay with OVCAR-8, 17.2 µM (inactive) in the assay with NCI-H460, 49.8 µM (inactive) in the assay on HOP-62 and 2.89 µM (inactive) with SF-268.
For `CCOC(=O)c1ccc(NC(NC(=O)CC)(C(F)(F)F)C(F)(F)F)cc1`, the GI50 in the assay on K562 is 39.3 µM (inactive); in the assay on SK-MEL-28, > 100 µM (inactive); in the assay with UACC-62, 34.4 µM (inactive); with SF-295, > 100 µM (inactive); with TK-10, > 100 µM (inactive); in the assay on NCI-H23 it was > 100 µM (inactive). Besides, the GI50 in the assay with HOP-92 was > 100 µM (inactive); with NCI-H522, > 100 µM (inactive); in the assay with HL-60, > 100 µM (inactive); in the assay with SK-OV-3 it was > 100 µM (inactive); with PC-3 it was 60.3 µM (inactive); in the assay with Malme-3M it was > 100 µM (inactive). Further, the GI50 in the assay on RPMI-8226, in the assay on OVCAR-8, with NCI-H460, in the assay on HOP-62 and in the assay on SF-268 was > 100 µM (inactive) throughout.
Consider `CCC1(CC)SCc2nc3ccccc3n21`, for which the GI50 is 18.9 µM (inactive) in the assay with K562; 37.2 µM (inactive) with SK-MEL-28; 39.4 µM (inactive) in the assay on UACC-62; 36.5 µM (inactive) in the assay with SF-295; 38.8 µM (inactive) in the assay with TK-10; 27.7 µM (inactive) in the assay on NCI-H23. The GI50 in the assay on HOP-92 is 18 µM (inactive); with NCI-H522, 37.6 µM (inactive); in the assay on HL-60 it was 26 µM (inactive); with SK-OV-3, 38.5 µM (inactive); in the assay with PC-3 it was 13.8 µM (inactive); in the assay on Malme-3M, 22.4 µM (inactive). Besides, the GI50 in the assay with RPMI-8226 was 24.9 µM (inactive); with OVCAR-8 it was 38.4 µM (inactive); in the assay on NCI-H460, 36.9 µM (inactive); with HOP-62, 37.1 µM (inactive); in the assay with SF-268 it was 52 µM (inactive).
On to `CC(=O)N(CN1C(=O)CCC1C(=O)O)c1ccccc1` (stereo not drawn), for which the GI50 was > 53 µM (inactive) with K562; > 100 µM (inactive) in the assay on SK-MEL-28; > 51.9 µM (inactive) with UACC-62; > 52.6 µM (inactive) in the assay on SF-295; > 53.5 µM (inactive) with TK-10; > 56.2 µM (inactive) with NCI-H23. The GI50 with HOP-92 was > 63.1 µM (inactive); in the assay with NCI-H522 it was > 53 µM (inactive); in the assay with HL-60, > 55.7 µM (inactive); in the assay with SK-OV-3, > 56.1 µM (inactive); in the assay on PC-3, > 55.8 µM (inactive); in the assay on Malme-3M it was 29.8 µM (inactive). For the same molecule, the GI50 in the assay with RPMI-8226 is > 55.2 µM (inactive); in the assay on OVCAR-8 it was > 52.4 µM (inactive); with NCI-H460, > 100 µM (inactive); with HOP-62, > 55.6 µM (inactive); with SF-268, > 52.4 µM (inactive).
With `CCc1cccc(C(C)C)c1NC1=C([n+]2ccc(C)cc2)C(=O)c2ccccc2C1=O.[O-][Cl+3]([O-])([O-])[O-]`, the GI50 in the assay on K562 was 1.91 µM (inactive); in the assay on SK-MEL-28 it was 7.64 µM (inactive); with UACC-62 it was 0.822 µM (active); in the assay on SF-295, 1.87 µM (inactive); in the assay with TK-10, 7.87 µM (inactive); with NCI-H23, 1.93 µM (inactive). The 50% growth inhibitory concentration (GI50) is 0.451 µM (active) in the assay with HOP-92; 1.32 µM (inactive) with NCI-H522; 1.18 µM (inactive) in the assay with HL-60; 2.64 µM (inactive) in the assay with SK-OV-3; 1.54 µM (inactive) with PC-3; 2.12 µM (inactive) with Malme-3M. Moreover, the GI50 with RPMI-8226 is 0.423 µM (active); in the assay on OVCAR-8 it was 0.962 µM (active); with NCI-H460, 0.564 µM (active); with HOP-62, 0.804 µM (active); in the assay with SF-268, 0.359 µM (active).
`COc1cccc(C(NC2=NCCC=N2)c2cc3c(cc2O)OCO3)c1O` (stereo not drawn): the GI50 with K562 is 17.9 µM (inactive); in the assay on SK-MEL-28 it was 32.7 µM (inactive); in the assay on UACC-62, 23.3 µM (inactive); in the assay with SF-295, 42.2 µM (inactive); with TK-10, 76.9 µM (inactive); in the assay with NCI-H23, 32.1 µM (inactive). Also, the GI50 in the assay on HOP-92 is 23.7 µM (inactive); with NCI-H522, 15.8 µM (inactive); with HL-60, 8.93 µM (inactive); with SK-OV-3 it was 94 µM (inactive); in the assay with PC-3, 29.1 µM (inactive); in the assay with Malme-3M, 38.1 µM (inactive). Moreover, the GI50 in the assay with RPMI-8226 was 21.5 µM (inactive); with OVCAR-8, 10.4 µM (inactive); in the assay on NCI-H460, 29.8 µM (inactive); in the assay on HOP-62, 25.7 µM (inactive); with SF-268, 34.8 µM (inactive).
Take `C=C(C)C(O)C(O)c1c(OC)ccc2ccc(=O)oc12` (stereo not drawn): the GI50 in the assay with K562, in the assay on SK-MEL-28, with UACC-62, with SF-295, in the assay with TK-10 and with NCI-H23 was > 100 µM (inactive) throughout. In addition, the GI50 with HOP-92, with NCI-H522, in the assay with HL-60, in the assay on SK-OV-3, with PC-3 and in the assay with Malme-3M was > 100 µM (inactive) throughout. The GI50 in the assay with RPMI-8226, in the assay with OVCAR-8, in the assay with NCI-H460, in the assay on HOP-62 and in the assay on SF-268 was > 100 µM (inactive) in each case.
On to `CC(CN(C)C)C(O)(c1ccccc1)c1ccccc1` (stereo not drawn), for which the GI50 with K562, in the assay on SK-MEL-28, in the assay on UACC-62, in the assay with SF-295, with TK-10 and in the assay with NCI-H23 was > 100 µM (inactive) each time. The GI50 in the assay with HOP-92, with NCI-H522, with HL-60, in the assay with SK-OV-3, in the assay with PC-3 and in the assay on Malme-3M was > 100 µM (inactive) throughout. Also, the GI50 with RPMI-8226, in the assay with OVCAR-8, in the assay with NCI-H460, with HOP-62 and in the assay on SF-268 was > 100 µM (inactive) in each case.
